Source: patent US7825103B2, “Pyrimidine nucleoside compound or its salt” (Taiho Pharmaceutical Co., Ltd., priority 2005, dated 2010)

Experiments:
[1] = tested on: Human large intestine cancer cell strain KM20C; assay: Anti-tumor test using nude mouse subcutaneous implantation system with peroral administration of CNDAC compound; assay type: in vivo, BALB/cA Jcl-nu mice; settings: Mus musculus, sc, 696 h; peroral once a day for 14 days, dose equivalent by mole to 18 mg/kg/day of CNDAC; day 29 after grouping; KM20C subcutaneous implant; read-out: IR (%) tumor growth inhibition rate
Method: (§1) Human large intestine cancer cell strain KM20C was subcutaneously subcultured in BALB/cA Jcl-nu mice (CLEA Japan, Inc.), and the resultant cancer tissues were cut into 2 mm dice fragments. Each of the fragments was subcutaneously implanted to a 6-week-old BALB/cA Jcl-nu mouse at the back thereof. On day 14 after the implantation, large and small diameters of the resultant tumor were measured, and the volume of the tumor was calculated by the following equation. The mice were grouped (6 animals per group) so that the groups were roughly equal in terms of average tumor volume. Vt=½(Vl)×(Vs)^2 (Equation 1) In the equation, Vt represents tumor volume, Vl represents large diameter of tumor, and Vs represents small diameter of tumor.
Each CNDAC compound was dissolved or suspended in 0.5% hydroxypropyl methyl cellulose solution which had been buffered with 100 mM citrate buffer (pH 6.0). From the next day after grouping, the mixture was perorally administered to each mouse once a day for consecutive 14 days in a dose which is equivalent, by mole, to 18 mg/kg/day of CNDAC.
On day 29 after the grouping, large and small diameters of the subcutaneously implanted tumor of each mouse were measured, and relative tumor volume (RTV) and inhibition rate (IR) were calculated by the following equations to evaluate anti-tumor effect of the compound. RTV=Vt1/Vt2 (Equation 2) In the equation, RTV represents ratio of tumor volume, Vt1 represents tumor volume measured on the day of determination, and […]. IR(%)=[1−(RTVtest)/(RTVcont)]×100 (Equation 3) In the equation, IR represents tumor growth inhibition rate, RTVtest represents mean RTV value of a drug-administered group, and RTVcont represents mean RTV value of a non-treatment group.

[2] = tested on: Human large intestine cancer cell strain KM20C; assay: Anti-tumor test using nude mouse subcutaneous implantation system, peroral administration in an equitoxic dose; assay type: in vivo, BALB/cA Jcl-nu mice; settings: peroral once a day for 14 days, FIG. 1
Method: as §1, with “15” for “14”, “through use of” for “by”, “the” for “the groups were roughly equal in terms of”, “volume was common to each group.” for “volume.”, “5)” for “1)”
CNDAC, P-CNDAC, or Compound 19 was dissolved or suspended in 0.5% hydroxypropyl methyl cellulose solution which had been buffered with 100 mM citrate buffer (pH 5.0). From the next day of grouping, the mixture was perorally administered to each mouse once a day for consecutive 14 days in an equitoxic dose.
Large and small diameters of the subcutaneously implanted tumor of each mouse were measured twice a week, and relative tumor volume (RTV) was calculated as an index indicating tumor growth through use of the following equations to evaluate anti-tumor effect of the compound. RTV=Vt1/Vt2 (Equation 6) In the equation, RTV represents ratio of tumor volume, Vt1 represents tumor volume measured on the day of determination, and Vt2 represents tumor volume measured on the day of grouping.

With `CC(C)C(C)(C)[Si](C)(C)O[C@H]1[C@H](C#N)[C@H](n2ccc(N)nc2=O)O[C@@H]1CO` [Example 19, 3′-O-Dimethylthexylsilyl-2′-cyano-2′-deoxy-1-β-D-arabinofuranosylcytosine] the inhibition in vivo [1] was 89%, the melting point was 159 to 161 °C and the deletion of tumor ([2]; 6 animals per group) was “deletes tumor in three cases in total six cases”. For the same molecule, the “change in tumor volume (RTV)” value [2] was “greatly reduces the tumor volume as compared with CNDAC and P-CNDAC”.
